The results in this text go back to patent publication US7253149B2, “Compounds and methods for modulating cell-adhesion mediated drug resistance” (University of South Florida, priority 2000, dated 2007).

Read-outs that look alike come from different tables or passages of the source. Marks after values point to notes of the source that are not given here. Where no end group is shown, it is not given here. [ ]: non-standard residue; d: D form.

In test [1] the test system is K562 cells. Kind of test: MTT cytotoxicity assay, FN adhered vs suspension K562 cells. The format is cell-based. Here is the method: Plastic 96-well Immunosorp plates (Nunc, Denmark) are coated with 50 μl (40 μg/ml) FN (Life Technologies) or BSA overnight. Cells are washed once and resuspended in serum-free RPMI 1640, then 2×10^4 (K562) cells are added to each FN coated well. 8×10^3 (K562) cells are added to BSA coated wells. Cells are incubated for 2 hours at 37° C., washed with serum free media, and put back into serum-containing media. Following 24 hours in a tissue culture incubator, drug or vehicle control is added to each well for 90 minutes, media is removed and replaced by drug-free media for 96 hours. In some experiments, the drug is allowed to remain in each well for 96 hours. 50 μl 3-[4,5-Dimethylthiazol-2-yl]-2,5-diphenyltetrazolium bromide;Thiazolyl blue (MTT dye) (Sigma) is added to each well for 4 hours, plates are centrifuged and each well aspirated. Dye is solubilized with 100 μl DMSO and plates are read at 540 nm on an automated microtiter plate reader. A blank well containing only medium and drug is also run as a control in all experiments. IC50 values are calculated by linear regression analysis of percent survival vs. drug concentration.
The MTT assay is used to detect differences in the drug sensitivity of FN adhered vs. suspension-cultured cells following a 90 minutes or 96 hours (continuous) exposure to either mitoxantrone or melphalan (L-phenylalanine mustard or LPAM). After a 96 hour period in a cell incubator, cell survival is determined by the ability of viable cells to reduce MTT dye to formazan. IC50 values are derived through linear regression of the log-linear dose-response plots for each cell line to each drug. Student's T-test is used to analyze differences in drug response using data collected from at least three different experiments. FIGS. 8A and 8B depict representative continuous exposure experiments using mitoxantrone and LPAM, respectively.
Background: Tetrazolium assays rely on reduction of a dye to a coloured formazan, in cell work by metabolically active cells.

Test [2] has as its system K562 cells. Kind of test: Adhesion of K562 cells to FN in presence of AG957. The format is cell-based. The note with it: concentrations of inhibitor used in cytotoxicity assays. Here is the method:
Cellular adhesion to FN is determined.
The BCR/ABL kinase is believed to be critical to the survival of CML cells through its effects on a number of signal transduction pathways. Inhibitors of this fusion protein show promise as apoptosis-inducing drugs in CML cells. BCR/ABL inhibition by relatively high doses of the tyrphostin AG957 can have negative effects on FN adhesion. At the concentrations of inhibitor used in cytotoxicity assays, the adhesion of K562 cells to FN is not affected by more than 20–40 percent.

Test [3] deals with BCR/ABL-associated tyrosine kinase activity. Nature of the test: Anti-phosphotyrosine immunoblotting of AG957 treated K562 cells. The conditions noted are these: 20 μM AG957, four hours.
For test [4], the system named is K562 cells. The format is cell-based.
Test [5] relates to 8226/S myeloma cells. Nature of the test: Annexin V apoptotic analysis, FN-adhered vs non-adhered 8226/S cells. The note with it: 50 uM melphalan, 24 hours. The format is cell-based, human.
Test [6] deals with K562/pcDNA3.1 and K562/VLA-4 cells. Nature of the test: Annexin V apoptosis analysis of α4 and empty vector transfectants adhered to FN with blocking antibodies. The format is cell-based. The conditions noted are these: for level of cytoprotection in comparison to drug treated suspension cells: 100 μM LPAM 90 minutes, 24 hours; for protection against melphalan-induced apoptosis: α5 blocking antibody prior to adhesion.

Test [7] has as its system 8226/S myeloma cells. Kind of test: MTT cytotoxicity assay, FN-adhered vs non-adhered 8226/S cells. The format is cell-based, human. The note with it: for IC50: Homo sapiens.
The test system of test [8] is 8226/S. It is filed as cell-based, human.
Test [9] addresses fibronectin. Nature of the test: cell-based or functional assay.
Test [10] relates to U937 cells. Nature of the test: Microtiter adhesion assay, adhesion of U937 cells to fibronectin. It is filed as cell-based. The note with it: 5 μg/ml to 80 μg/ml, FIG. 26.
Test [11] addresses integrin β7 subunit (human) (UniProt P26010). Nature of the test: flow cytometry (FACS) on 8226/DOX6 cells, FITC-conjugated secondary antibody. Background: A flow cytometer gives signals particle by particle.
The target is the same in test [12]. Nature of the test: flow cytometry (FACS) on 8226/S cells, FITC-conjugated secondary antibody.
The target is the same in test [13]. Kind of test: flow cytometry (FACS) on 8226/LR5 cells, FITC-conjugated secondary antibody.
In test [14] the target is VLA-5 (α5β1 integrin) (human) (UniProt P08648). Nature of the test: cell-based or functional assay.
In test [15] the target is integrin α5 subunit (CDw49e) (human) (UniProt P08648). Nature of the test: flow cytometry (FACS) on 8226/DOX6 cells, FITC-conjugated secondary antibody.
For test [16] the target is unchanged. Kind of test: flow cytometry (FACS) on 8226/S cells, FITC-conjugated secondary antibody.
Test [17] shares this target. Nature of the test: flow cytometry (FACS) on 8226/LR5 cells, FITC-conjugated secondary antibody.
The target in test [18] is integrin α4 subunit (CDw49d) (human) (UniProt P13612). Kind of test: flow cytometry (FACS) on 8226/DOX6 cells, FITC-conjugated secondary antibody.
Test [19] shares this target. Nature of the test: flow cytometry (FACS) on 8226/S cells, FITC-conjugated secondary antibody.
The target is the same in test [20]. Kind of test: flow cytometry (FACS) on 8226/LR5 cells, FITC-conjugated secondary antibody.

Chain of UniProt P26010 (P26010 20-798): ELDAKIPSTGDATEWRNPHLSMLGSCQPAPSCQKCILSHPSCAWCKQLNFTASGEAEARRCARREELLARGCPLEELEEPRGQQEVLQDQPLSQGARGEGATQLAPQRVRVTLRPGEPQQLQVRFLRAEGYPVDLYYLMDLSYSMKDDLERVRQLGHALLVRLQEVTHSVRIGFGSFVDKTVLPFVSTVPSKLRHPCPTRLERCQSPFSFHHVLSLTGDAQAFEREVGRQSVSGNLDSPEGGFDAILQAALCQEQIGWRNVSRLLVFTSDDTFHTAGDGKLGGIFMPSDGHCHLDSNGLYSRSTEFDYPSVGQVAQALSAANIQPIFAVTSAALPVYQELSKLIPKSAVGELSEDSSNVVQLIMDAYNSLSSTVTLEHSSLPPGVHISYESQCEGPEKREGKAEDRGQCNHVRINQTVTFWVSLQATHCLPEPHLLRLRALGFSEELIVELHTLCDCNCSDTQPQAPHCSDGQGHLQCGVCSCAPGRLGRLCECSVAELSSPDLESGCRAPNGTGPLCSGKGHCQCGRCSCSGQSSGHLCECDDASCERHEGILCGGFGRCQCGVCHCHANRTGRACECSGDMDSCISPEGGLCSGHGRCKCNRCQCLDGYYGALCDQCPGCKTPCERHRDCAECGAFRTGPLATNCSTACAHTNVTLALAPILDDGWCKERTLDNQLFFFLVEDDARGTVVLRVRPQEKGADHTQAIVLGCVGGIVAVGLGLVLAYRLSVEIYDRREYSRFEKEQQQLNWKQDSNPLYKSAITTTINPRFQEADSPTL

In general, IC50 refers to the concentration needed to halve the response being measured. Take `COC(=O)c1ccc(NCc2cc(O)ccc2O)cc1` [AG957]: the “fold resistance of FN adhered cells over suspension cells” value in [1] (AG957 for 96 hours) was determined as 3.6. The IC50 in [1] (AG957 for 96 hours, three independent experiments, read-out: mean IC50 FN adhered cells) turned out to be 12.9 µM; in [1] (AG957 for 96 hours, three independent experiments, read-out: mean IC50 suspension grown cells) it was 3.6 µM. Moreover, in test [2], the “effect on adhesion of K562 cells to FN” value was 20–40%. Besides, in test [3], the “BCR/ABL associated tyrosine phosphorylation” value is reported as “completely abrogated”.
Take `Nc1ccn([C@@H]2O[C@H](CO)[C@@H](O)[C@@H]2O)c(=O)n1` [Ara-C]: in [4], the “% Control death” value is reported as 54.9* %, the “FN: mean death” value is reported as 6.2 ± 1.6 and the “Suspension: mean death” value was 11.3 ± 5.5.
With `N[C@@H](Cc1ccc(N(CCCl)CCCl)cc1)C(=O)O` [LPAM, L-phenylalanine nitrogen mustard], the “FN: mean death” value in test [4] (100 μM, 1 hr) was 11.0 ± 8.3; in test [4] (100 μM, cont. exp.), 23.3 ± 6.4. Moreover, the “Suspension: mean death” value in test [4] (100 μM, 1 hr) came to 37.5 ± 24.0; in test [4] (100 μM, cont. exp.) it was 39.8 ± 3.2. Also, the “% Control death” value in [4] (100 μM, 1 hr, FN vs suspension) is 29.3* %; in test [4] (100 μM, cont. exp., FN vs suspension) it was 58.5* %. Moreover, the “percentage of apoptotic cells, FN-adhered” value in test [5] amounted to 16.53%. The “percentage of apoptotic cells, non-adhered” value in [5] was determined as 21.5%. Besides, the IC50 in test [1] (Homo sapiens, K562, 1.5 h, 90 min. exposure, FN adhered, read-out: Fibronectin mean IC50) stood at 190 µM; in [1] (Homo sapiens, K562, 1.5 h, 90 min. exposure, read-out: Suspension mean IC50), 29.3 µM; in test [1] (Homo sapiens, K562, 1.5 h, 90 minutes exposure, text b188, read-out: mean IC50 suspension (printed without exponent and unit)) it was 29.3 µM; in test [1] (Homo sapiens, K562, continuous (96 hours) exposure, FN adhered, read-out: Fibronectin mean IC50), 57.3 µM; in test [1] (Homo sapiens, K562, continuous (96 hours) exposure, read-out: Suspension mean IC50) it was 25.5 µM; in test [7] (read-out: mean IC50 value for FN-adhered cells), 48 µM. Also, the half-inhibitory concentration (IC50) in test [7] (read-out: mean IC50 value for cells grown on BSA) is 30 µM. In test [1] (continuous exposure), the “Fold resistance FN adhered vs suspension” value amounted to 2.25 fold. Moreover, the “level of cytoprotection in comparison to drug treated suspension cells” value came to 30.0±1.5% in [6] (K562/VLA-4 adhering through both α4 and α5); 29.9±5.3% in test [6] (K562/pcDNA3.1 adhered through α5 alone). The “protection against melphalan-induced apoptosis” value in test [6] (K562/VLA-4) is reported as 20.6±1.9%; in test [6] (K562/pcDNA3.1), 0±11.1%. In addition, the “mean difference FN-adhered vs BSA” value in test [7] (n=3) is 1.7. Besides, in [8], the “effect of acute exposure on cell surface integrin expression” value is given as “no immediate effects”.
Regarding `CC[C@]1(O)C[C@H]2CN(CCc3c([nH]c4ccccc34)[C@@](C(=O)OC)(c3cc4c(cc3OC)N(C=O)[C@H]3[C@@](O)(C(=O)OC)[C@H](OC(C)=O)[C@]5(CC)C=CCN6CC[C@]43[C@@H]65)C2)C1` [VCR, vincristine], the “FN-mediated protection against the drug” value in [4] (continuous exposure) is given as “not significant”.
On to `COc1cccc2c1C(=O)c1c(O)c3c(c(O)c1C2=O)C[C@@](O)(C(=O)CO)C[C@@H]3O[C@H]1C[C@H](N)[C@H](O)[C@H](C)O1` [doxorubicin, Doxorubicin], for which, in test [8] (wide range of concentrations, 1–48 hours), the “effect of acute exposure on cell surface integrin expression” value is on record as “no immediate effects”.
Consider `O=C1c2c(O)ccc(O)c2C(=O)c2c(NCCNCCO)ccc(NCCNCCO)c21` [mitoxantrone], for which the “Fold resistance FN adhered vs suspension” value in test [1] (90 min. exposure) was “approximately 3.7 fold”; in test [1] (continuous exposure), 6.8 fold.
As for “VLA-4 (α4β1 integrin, Very Late Activation Antigen 4) (from UniProt P13612 34-1032; P05556 21-798)”, in test [9], the level of cytoprotection against melphalan-induced apoptosis in comparison to drug treated suspension cells (Annexin V, flow cytometry) is 20.6 percent.
Same read-out and setting: to “VLA-5 (α5β1 integrin) (from UniProt P08648 42-1049; P05556 21-798) (receptor)” belongs 29.9 percent.
For the molecule “kmviywkag ([dK][dM][dV][dI][dY][dW][dK][dA]G) [RZ-3, D-amino acid peptide Lys-Met-Val-Ile-Tyr-Trp-Lys-Ala-Gly, each amino acid a D-amino acid]”, in [10], the “effect on adhesion of U937 cells to FN” value was “effective in preventing FN adhesion”.
monoclonal antibody FIB504 (anti-β7): the mean fluorescence intensity in [11] turned out to be 18.5; in test [12], 5.72; in test [13] it was 40.2.
In test [14], “monoclonal antibody P1D6 (anti-CDw49e, α5)” yielded a level of cytoprotection against melphalan-induced apoptosis in comparison to drug treated suspension cells (Annexin V, flow cytometry) of 0 percent. Also, the mean fluorescence intensity in [15] is 7.32; in test [16], 14.2; in [17], 11.9.
Consider “monoclonal antibody P4G9 (anti-CDw49d, α4)”, for which the mean fluorescence intensity in test [18] is 69; in test [19] it was 10.4; in test [20], 46.5.
